Several values for one entry are separate records, joined by “and”; a condition that tells them apart may be missing. Identical values can stand only once.
System: P. falciparum 3D7 growth, pLDH absorbance
Test: P. falciparum 3D7 growth inhibition, dose response, strain 3D7 (AID 2305)

SMILES | IC50
CCCCCCCCCC(=O)NCC1CC(Br)=NO1 (stereo not drawn) | 1050 nM
COc1ccc(CNCc2cccc(-c3cccc(-c4nc5ccc(C(F)(F)F)cc5[nH]4)c3)c2)cc1 | 200 nM
COc1cc2c(cc1OC)CN(CCc1ccc(NC(=O)c3cc4cc(Cl)ccc4[nH]3)cc1)CC2 | 1020 nM
Cc1cccc(-c2nc(Nc3ccncc3)c3ccc([N+](=O)[O-])cc3n2)n1 | 830 nM
COC(=O)c1cccc(CNCc2cccc(-c3cccc(-c4nc5ccc(F)cc5[nH]4)c3)c2)c1 | 130 nM
CCN1CCC(N(Cc2ccc(-c3ccc(C(F)(F)F)cc3)o2)C(=O)Cn2c(CCc3cccc(F)c3F)nc(=O)c3ccccc32)CC1 | 1140 nM
COc1ccc2nccc([C@@H](O)CN3CCC(NC(=O)c4ccc(-c5ccc(C#N)cc5)cc4)CC3)c2c1 | 160 nM
O=C(Nc1ccc(OC2CCN(Cc3ccc(F)cc3)C2)c(Cl)c1)c1cccs1 (stereo not drawn) | 130 nM
N#Cc1ccc(NC(=O)N2CCCN(CCCCCNC(=O)/C=C/c3ccc(Cl)c(Cl)c3)CC2)cc1 | 770 nM
Clc1ccc2c(NN=Cc3cccnc3)ccnc2c1 | 700 nM
CCN(CC)CCN(Cc1ccc(-c2ccc(C(F)(F)F)cc2)cc1)C(=O)Cn1c(SCc2ccc(F)cc2)nc(=O)c2ccccc21 | 770 nM
Cc1cc(NCCC(=O)NCc2cccc(F)c2)nc(NCCc2ccc(F)cc2)n1 | 1750 nM
O=C(NC1CCCCN(Cc2ccccc2O)C1)c1cc(F)cc(F)c1 (stereo not drawn) | 1170 nM
O=C(/C=C/c1ccc(Cl)c(Cl)c1)N1CCC(CN2CCC(c3c[nH]c4cc5c(cc34)OCO5)CC2)CC1 | 680 nM
NC1CCCN(Cc2cccc(-c3ccc(-c4nc5ccc(F)cc5[nH]4)cc3)c2)C1 (stereo not drawn) | 570 nM
COc1cccc(C2=CC(c3ccccc3)n3ncc(C(=O)Nc4ccc(Cl)cc4)c3N2)c1 (stereo not drawn) | 1060 nM
COc1cccc(CN2CCC3(CC2)CN(C(=O)Nc2ccc(Cl)c(Cl)c2)C3)c1 | 750 nM
CC(C)NCc1ccc(-c2cccc(NC(=O)c3cccc(Cl)c3)c2)cc1 | 730 nM
Fc1cccc(COc2ccc(Nc3ncnc4sc(C#C[C@H]5CC[C@H](CN6CCOCC6)N5)cc34)cc2Cl)c1 | 920 nM
O=C(Nc1cccc(-c2ccc(-c3nc4ccc(C(F)(F)F)cc4[nH]3)cc2)c1)c1cnc[nH]1 | 970 nM
CCOC(=O)c1ccc(NC(=O)Nc2ccc(-c3ccc(-c4nc5c(C)cccc5[nH]4)s3)cc2)cc1 | 200 nM
Oc1ccc2ccccc2c1CNC1CCCCCC1 | 930 nM
O=C(NC1CCC(CN2CCC(c3c[nH]c4ccccc34)CC2)CC1)c1ccc(-c2ccccc2[N+](=O)[O-])o1 (stereo not drawn) | 770 nM
CCCCn1c(SC(C)C)nc2c(c1=O)C1(CCCCC1)Cc1ccccc1-2 | 670 nM
CC(C)(C)NCc1cc(Nc2ccnc3cc(Cl)ccc23)ccc1F | 30 nM

SMILES | IC50
CCCOc1cc(OCCC)cc(-c2ccc(C(=O)Nc3ccc4ccc(C)nc4c3)c(=O)[nH]2)c1 | 750 nM
C=CCOc1ccc2ccccc2c1CNCCCCCCNCc1c(OCC=C)ccc2ccccc12 | 860 nM
O=C(Nc1cccc(CN2CCCN(CCc3ccccc3)CC2)c1)c1ccc(Cl)c(Cl)c1 | 950 nM
Cc1cc(C=C2SC(=Nc3ccccc3)N(C3CCCC3)C2=O)c(C)n1-c1ccc(Cl)cc1 | 880 nM
COc1cc(C2NCC3(CCOCC3)c3cc4c(cc32)OCCO4)cc(OC)c1OC (stereo not drawn) | 170 nM
CS(=O)(=O)Nc1ccc2[nH]cc(C3CCN(CC4CCC(NC(=O)/C=C/c5ccccc5Cl)CC4)CC3)c2c1 (stereo not drawn) | 790 nM
Cn1cncc1-c1ccc2ncnc(Nc3ccc4c(cnn4Cc4ccccc4)c3)c2c1 | 180 nM
O=C1OC2(CCN(C(=O)c3ccc(-n4cnnn4)cc3)CC2)CN1Cc1ccc(Cl)c(Cl)c1 | 720 nM
CNC(=O)c1cnc(Nc2ccc(OCC(O)CN(C)C)cc2)nc1Nc1cccc([N+](=O)[O-])c1 (stereo not drawn) | 620 nM
O=C(Nc1cccc(C(F)(F)F)c1)NC1CCN(c2ccnc3ccccc23)C1 (stereo not drawn) | 290 nM
COc1ccc2ncc(Cl)c(CCN3CCC(NCc4ccc5c(n4)NC(=O)CS5)CC3)c2c1 | 590 nM
COc1ccc(Cl)cc1N1CCN(CCCNC(=O)c2ccc(-c3nc4cc(Cl)c(F)cc4[nH]3)cc2)CC1 | 1060 nM
COc1ccc(-c2cnc3[nH]cc(-c4ccc(CCC(=O)O)cc4)c3c2)cn1 | 770 nM
CC(Cc1ccc(NC(=O)c2ccc(CNCCCCc3ccccc3)cc2)cc1)NCCc1cccc(Cl)c1 (stereo not drawn) | 330 nM
COc1ccc(C(=O)Cn2nc(-c3ccc(Cl)cc3)ccc2=O)c(OC)c1 | 500 nM
CC(=O)N(C)c1cccc(C(=O)Nc2ccc(-c3cccc(-c4nc5c(C)cccc5[nH]4)c3)cc2)c1 | 650 nM
CCCCCCCN(CCCCCCC)CCCC(=O)Nc1ccnc2ccc(OC)cc12 | 150 nM
Cc1cc(-c2nc3ccc(N4CCN(C)CC4)cc3[nH]2)nn1Cc1cc(Cl)ccc1OCC(C)C | 880 nM
COc1ccc2nccc(NN=Cc3cccc(Cl)c3)c2c1 | 190 nM
O=C(Nc1cc(C(F)(F)F)ccc1-n1cncn1)C1(c2ccccc2)CC1 | 60 nM
COc1ccc(-c2ccc3c(-c4cccc(S(C)(=O)=O)c4)cnc(N)c3c2)cc1 | 1330 nM
FC(F)(F)c1ccc2nc(-c3ccc(-c4cccc(CNCc5cnn(-c6ccccc6)n5)c4)s3)[nH]c2c1 | 330 nM
COc1cc(SC)c(Br)cc1-c1nc2ccncc2[nH]1 | 1100 nM
COc1ccc(NC(=O)C2c3ccccc3C(=O)N(C3CCCC3)C2c2cccs2)cc1OC (stereo not drawn) | 1090 nM
COc1cccc(OC(C)(C)c2nc(N[C@@H](C)c3ccccc3)c3cn[nH]c3n2)c1 | 970 nM

SMILES | IC50
C=CCc1cc(Cc2cnc(N)nc2N)c2ccc(C)nc2c1O | 1040 nM
CCC1CN(S(=O)(=O)c2ccc3c(c2)NC(=O)CC(=O)N3)c2cc(Cl)ccc2O1 (stereo not drawn) | 660 nM
COc1ccc2nc3cc(Cl)ccc3c(NCCCN3CCNCC3)c2c1 | 230 nM
COCCNCc1cccc(-c2ccc(CN(C(=O)Nc3ccccc3)C3CCN(Cc4ccccc4)CC3)cc2)c1 | 770 nM
Cc1cccc2[nH]c(-c3ccc(-c4ccc(NC(=O)NCc5ccc(F)cc5)cc4)cc3)nc12 | 1330 nM
CC(C)(C)C(Cn1ccnc1)NCc1cn[nH]c1-c1ccc(-c2ccccc2)cc1 (stereo not drawn) | 1060 nM
O=C(NCCCCN1CCC(c2cccc3ccccc23)CC1)c1ccc(-c2ccc(C(F)(F)F)cn2)cc1 | 870 nM
COc1cc2nc(-c3ccc(Br)cc3)cc(N)c2cc1OC | 170 nM
COc1ccc2c(NN=Cc3ccncc3)ccnc2c1 | 960 nM
Cc1cccc(C)c1C1CCN(C2CCC(NC(=O)/C=C/c3ccccc3)CC2)CC1 (stereo not drawn) | 580 nM
CC(CNC(=O)c1cc2c(Cl)cc(Cl)cc2[nH]1)CNc1cc(=O)c2ccccc2[nH]1 (stereo not drawn) | 720 nM
Cc1ccccc1Oc1nc2ccccc2nc1SCC(=O)NC(C)C | 200 nM
CC(C)C[C@H](NC(=O)c1ccc(OCCN2CCOCC2)cc1)C(=O)N[C@H](/C=N/N1CCNC1=O)CCc1ccccc1 | 370 nM
COc1ccc(-c2nc(NC(=O)CS(=O)(=O)c3ccc(OC)cc3)sc2C)cc1 | 300 nM
O=C(Cn1c(SCc2cccc(F)c2F)cc(=O)c2ccccc21)N(CCCn1ccnc1)Cc1ccc(-c2ccc(C(F)(F)F)cc2)cc1 | 1320 nM
Cc1[nH]c(C)c(-c2ccc(Oc3ccc(OC(F)(F)F)cc3)cc2)c(=O)c1I | 130 nM
Cc1ccc2nc(C)cc(NC(=O)Nc3ccc(N(C)C)cc3)c2c1 | 540 nM
Cc1ccc(-n2cc(CNCCCn3ccnc3)c(-c3cccc(C)c3)n2)cc1 | 770 nM
O=C(/C=C/c1cccc2ccccc12)NC1CCC(CN2CCC(c3c[nH]c4ccccc34)CC2)CC1 (stereo not drawn) | 740 nM and 670 nM
Cc1cc(N[C@@H](Cc2ccccc2)C(=O)Nc2ccccc2)nc(NCC2CCCCC2)n1 | 760 nM
COc1ccc2c(NN=Cc3cccc([N+](=O)[O-])c3)ccnc2c1 | 850 nM
C/C=C1\CN2CC[C@H]1C[C@H]2[C@H](O)c1ccnc2ccc(O)cc12 | 600 nM
CCCn1c(SCC(=O)Nc2cc(Cl)ccc2Cl)n[nH]c1=O | 1000 nM
O=C(Nc1ccc2c(c1)CCN2C1CCN(Cc2cc(F)cc(F)c2F)C1)c1ccco1 (stereo not drawn) | 590 nM
Cc1ccc(-c2ccc3c(c2)C=C(C(=O)NC2CCN(CCNC(=O)c4cccc(C(F)(F)F)c4)CC2)CCC3)cc1 | 510 nM

SMILES | IC50
O=[N+]([O-])c1ccc2c(c1)c1ccccc1n2Cc1ccccc1O | 1110 nM
CCc1c[nH]c2c(N(c3ccccc3)S(C)(=O)=O)cc(C(=O)N[C@@H](Cc3ccccc3)[C@H](O)CNC(C)(C)CCCC(C)C)cc12 | 820 nM
COc1ccc2nccc([C@@H](O)CN3CCC(NCc4cnc5snnc5c4)C(F)C3)c2c1 (stereo partly drawn) | 1350 nM
CCOc1cc(C)ccc1C1CCN(CCCCNC(=O)c2ccc(-c3ccc(Cl)cn3)cc2)CC1 | 1610 nM
Cc1cc2nc(-c3cc(-c4cccc(NS(C)(=O)=O)c4)cnc3N)[nH]c2cc1C | 670 nM
CCOc1ccc(-c2nonc2NC(=O)CC(C)C)cc1OCC | 980 nM
CCCC/C=C(\Cl)c1ccc(O)c2c1C[C@H]1C[C@H]3[C@H](N(C)C)C(=O)C(C(N)=O)=C(O)[C@@]3(O)C(=O)C1=C2O | 1090 nM
COc1ccc(N2CCN(CCCCNC(=O)c3ccc(NC(=O)c4ccc(C(F)(F)F)cc4)cc3)CC2)c(OC)c1 | 590 nM
O=C(/C=C/c1ccc(Cl)c(Cl)c1)N1CCC(CCCN2CCC(c3c[nH]c4ccc(O)cc34)CC2)CC1 | 690 nM
CCCNc1nc(Nc2ccccc2C)nc2ccccc12 | 890 nM
O=C(Nc1ccc(-c2csc(-c3nc4ccccc4[nH]3)c2)cc1)Nc1ccc(Cl)c(Cl)c1 | 400 nM
CCSc1ccccc1COc1c(C)nc(N)nc1N | 70 nM
COc1cc2nc(N(C)CC3COc4ccccc4O3)nc(N)c2cc1OC (stereo not drawn) | 1550 nM
CNC(=O)c1ccc2nc(-c3ccc(-c4ccccc4)cc3)n(CC3CCN(CC4CCCC4)CC3)c2c1 | 40 nM
Clc1nc(Cl)c2c(ccn2Cc2ccccc2)n1 | 790 nM
NC1=NC2(CCCC2)N(c2ccc(Cl)cc2)C(N)=N1 | 410 nM
CCOC(=O)c1ccc(NC(=O)Nc2cccc(-c3ccc(-c4nc5ccc(F)cc5[nH]4)cc3)c2)cc1 | 90 nM
CCCCCCN1CCC(NCc2ccc(C(F)(F)F)cc2)CC1 | 370 nM
Cc1ccc(-n2nc(C)c3c2NC(=O)CSC3c2ccsc2)cc1 (stereo not drawn) | 1010 nM
O=C(Nc1ccc(S(=O)(=O)NCCCN2CCOCC2)cc1)c1cc(-c2ccccc2)n[nH]1 | 770 nM
CC(C)N1CCC(N(Cc2ccc(-c3ccc(C(F)(F)F)cc3)cc2)C(=O)Cn2c(CCc3cccc(F)c3F)nc(=O)c3cccnc32)CC1 | 640 nM
COc1ccc(C(=O)CCc2ccc(O)cc2)cc1 | 480 nM
Cc1ccc(O)cc1Nc1ccnc2cc(-c3nccs3)ccc12 | 880 nM

Source: PubChem BioAssay AID2305 (GlaxoSmithKline (GSK), 2010)
